The values below come from article PMC3862803, “Human Breast Tumor Cells Are More Resistant to Cardiac Glycoside Toxicity Than Non-Tumorigenic Breast Cells” (PLoS ONE, 2013).

Molecules are shown by their SMILES. Like-named read-outs stand apart in the source and are kept apart here. Some results are limits rather than exact numbers.

The subject of one assay is 184A1 cells. Description: PrestoBlue viability assay. The assay is classed as cell-based. As to conditions: Homo sapiens; 184A1, 24 hours; mean ± SE, n>3; read-out: Reduced cell viability (IC50). The protocol: (§1) To determine cell growth curves, cells were trypsinized, counted using a Scepter Cell Counter (Millipore, Billerica, MA), plated in a 96-well plate at a density of 1,000, 3,000, 5,000, or 10,000 cells per well, and allowed to attach overnight. On day 2, growth curves were determined using the PrestoBlue Viability Assay (Life Technologies, Grand Island, NY) to ensure cell densities used for viability and proliferation assays were in linear growth phase.

Another assay concerns 184D cells. Description: PrestoBlue viability assay. The assay is classed as cell-based. Conditions: Homo sapiens, 24 hours, mean ± SE, n>3, read-out: Reduced cell viability (IC50). The protocol: as §1
The test system of assay [1] is MCF10CA1 cells. Description: PrestoBlue viability assay. Type of assay: cell-based. As to conditions: Homo sapiens; MCF10CA1, 24 hours; mean ± SE, n>3; read-out: Reduced cell viability (IC50). The protocol: as §1
Assay [2] concerns MCF10A cells. Description: PrestoBlue viability assay. Conditions: for IC50: Homo sapiens, MCF-10A, 24 hours, mean ± SE, n>3, read-out: Reduced cell viability (IC50). The assay is classed as cell-based, human. The protocol: as §1
The test system of assay [3] is MDA-MB-231 cells. Description: PrestoBlue viability assay. Type of assay: cell-based, human. Conditions: for IC50: Homo sapiens, MDA-MB-231, 24 h, read-out: Reduced cell viability (IC50).
The target in another assay is T1, Na,K-ATPase (Homo sapiens, UniProt P05023).
T1 construct: The Na,K-ATPase activity in total membranes isolated from non-tumorous 184D, 184A, and MCF10A (10A) cells; endogenous in cells; host or cells: total membranes of MCF10A, 184D, 184A1, MCF10CA1, MCF7 and MDA-MB-231 human breast cells
Description: biochemical. The assay is classed as biochemical. Conditions: for IC50: mean ± SE, n>3, read-out: IC50 for CTS inhibition of ATPase activity.

A further assay has as its system prostate cancer. As to conditions: digoxin use, large prospective cohort study; cited from earlier work.
Assay [4] deals with MDA-MB-231 cells. Description: TUNEL apoptosis assay. The assay is classed as cell-based, human. Conditions: 6 hours. As to the method: (§2) As a positive control, MCF10A and MCF10CA1 cells were treated with DNaseI for 15 minutes prior to assay. Cells were fixed and permeabilized prior to Terminal deoxynucleotidyl transferase dUTP nick end labeling (TUNEL) staining of DNA fragmentation using the ApopTag Fluorescein In Situ Apoptosis Detection Kit according to manufacturer’s instructions (Millipore, Billerica, MA). Slides were covered with Vectashield Mounting Medium with DAPI (Vector Laboratories, Burlingame, CA) and sealed with a glass coverslip. Images were detected and analyzed using Zeiss LSM 5 Pascal microscope and software.

In assay [5] the test system is MCF10A cells. Description: TUNEL apoptosis assay. Type of assay: cell-based, human. Conditions: 6 hours. The protocol:
as §2

Assay [6] relates to MCF10CA1 cells. Description: TUNEL apoptosis assay. Conditions: 6 hours. The assay is classed as cell-based, human. As to the method:
as §2

Assay [7] relates to MCF7 cells. Description: TUNEL apoptosis assay. Type of assay: cell-based, human. Conditions: 6 hours.
The test system of assay [8] is MCF10A cells. Description: BrdU cell proliferation assay. The assay is classed as cell-based, human. Conditions: 500 nM ouabain for 2 hours, P<0.001.
Assay [9] relates to MDA-MB-231 cells. Description: BrdU cell proliferation assay. The assay is classed as cell-based, human.
Another assay concerns p-ERK1/2. Description: Western blot of cell lysates for p-ERK1/2. The assay is classed as cell-based, human. As to conditions: for p-ERK levels in lysates (western blot): 50 nM or 500 nM ouabain for 24 hours; for p-ERK1/2 levels in lysates (western blot): 500 nM ouabain. For orientation: In western blotting, separated proteins are transferred to a membrane and probed.
Assay [10] deals with MCF10CA1 cells. Description: BrdU cell proliferation assay. The assay is classed as cell-based, human.
Assay [11] has as its system MCF7 cells. Description: BrdU cell proliferation assay. Type of assay: cell-based, human. As to conditions: 500 nM ouabain for 24 hours. As to the method: BrdU label was added to cells in fresh culture medium with or without ouabain for two hours according to manufacturer’s recommendations. BrdU incorporation into the DNA of proliferating cells was detected using an anti-BrdU primary antibody and Peroxidase Goat Anti-mouse secondary antibody. Fluorescence was quantified using a FLUOStar Omega microplate reader (BMG Labtech).

The mark [12] stands for this setting: 24 hour ouabain at high concentrations (500 nM).

Description for Na,K-ATPase: Total membranes (TM) were prepared from cells as previously described [37] and resuspended in cold homogenizing buffer (10 mM Tris-HCl, 2 mM EDTA, 250 mM sucrose, pH 7.4) containing Complete-Mini Protease Inhibitor Cocktail Tablets (Roche, Indianapolis, IN).
The ATPase activity assay of isolated TM from cells was performed for 30 min at 37°C as previously described [38].
Description for p-ERK1/2: Total cell lysate preparations were made by incubating cell pellets in lysis buffer (150 mM NaCl, 50 mM Tris, 1% CHAPS, pH 7.4) for 30 minutes at 4°C. Lysates were cleared at 15,000 x g for 10 minutes and the soluble protein supernatant was collected for analysis. Protein concentrations were determined using the Coomassie Protein Assay Kit (Pierce, Rockford, IL).
Protein samples were subject to western blot analysis according to previously described procedures [39]. Transferred proteins were blocked using either 5% dried milk, 0.1% Tween-20 in phosphate-buffered saline or 5% bovine serum albumin, 0.1% Tween-20 in Tris-buffered saline. PVDF membranes were sequentially probed with primary antibodies and horseradish peroxidase-conjugated secondary antibodies according to manufacturer’s recommendations. Luminata Forte Western HRP Substrate (Millipore, Billerica, MA) was used for peroxidase detection and the resulting signal intensity was quantified on a BioRad Chemidoc XRS using Quantity One Version 4.6.2 software. When appropriate, signal intensity from anti-actin antibody was used as a protein loading control.

One may read the IC50 as the concentration that gives 50% inhibition. As to `C[C@H]1O[C@@H](O[C@H]2[C@@H](O)C[C@H](O[C@H]3[C@@H](O)C[C@H](O[C@H]4CC[C@@]5(C)[C@H](CC[C@@H]6[C@@H]5CC[C@]5(C)[C@@H](C7=CC(=O)OC7)CC[C@]65O)C4)O[C@@H]3C)O[C@@H]2C)C[C@H](O)[C@@H]1O` [Digitoxin, digitoxin], the IC50 was 1.44 ± 0.0293 µM in the assay with 184A1 cells; 1.27 ± 0.0654 µM with 184D cells; 3.68 ± 0.0895 µM in the assay on MCF10CA1 cells [1]; 1.57 ± 0.191 µM in the assay on MCF10A cells [2]; 3.68 ± 0.15 µM in the assay on MDA-MB-231 cells [3]; 1.83 ± 0.0887 µM at Na,K-ATPase (total membranes of 184A1 cells). The IC50 on Na,K-ATPase (total membranes of 184D cells) is 2.07 ± 0.307 µM; on Na,K-ATPase (total membranes of MCF7 cells), 1.16 ± 0.0427 µM; on Na,K-ATPase (total membranes of MCF10A cells), 1.35 ± 0.0852 µM; at Na,K-ATPase (total membranes of MCF10CA1 cells), 1.48 ± 0.0738 µM; on Na,K-ATPase (total membranes of MDAMB231 cells), 1.18 ± 0.155 µM.
`C[C@H]1O[C@@H](O[C@H]2[C@@H](O)C[C@H](O[C@H]3[C@@H](O)C[C@H](O[C@H]4CC[C@@]5(C)[C@H](CC[C@@H]6[C@@H]5C[C@@H](O)[C@]5(C)[C@@H](C7=CC(=O)OC7)CC[C@]65O)C4)O[C@@H]3C)O[C@@H]2C)C[C@H](O)[C@@H]1O` [digoxin]: in the assay on prostate cancer, the “Prevention of prostate cancer” value is reported as at most 25%.
For `C[C@]12CC[C@H](O)C[C@H]1CC[C@@H]1[C@@H]2CC[C@]2(C)[C@@H](c3ccc(=O)oc3)CC[C@]12O` [Bufalin, bufalin], the concentration for half-maximal inhibition (IC50) with 184A1 cells is 0.319 ± 0.0061 µM; with 184D cells it was 0.329 ± 0.0112 µM; with MCF10CA1 cells [1] it was 0.635 ± 0.172 µM; in the assay on MCF10A cells [2], 0.465 ± 0.0259 µM; in the assay on MDA-MB-231 cells [3] it was 0.9364 ± 0.0049 µM. The “Cells exhibiting DNA fragmentation (TUNEL), a marker for apoptosis” value in the assay with MDA-MB-231 cells [4] (50 nM bufalin) was below 5%; in the assay on MCF10A cells [5] (50 nM bufalin), “Over 90%”; in the assay on MCF10CA1 cells [6] (50 nM bufalin), below 5%; in the assay on MCF7 cells [7] (50 nM bufalin), below 5%.
Turning to `C[C@@H]1O[C@@H](O[C@H]2C[C@@H](O)[C@]3(CO)[C@H]4[C@H](O)C[C@]5(C)[C@@H](C6=CC(=O)OC6)CC[C@]5(O)[C@@H]4CC[C@]3(O)C2)[C@H](O)[C@H](O)[C@H]1O` [Ouabain, ouabain], the IC50 in the assay with 184A1 cells stood at 1.49 ± 0.0453 µM; in the assay on 184D cells it was 1.35 ± 0.155 µM; with MCF10CA1 cells [1], 2.67 ± 0.574 µM; in the assay on MCF10A cells [2] it was 2.17 ± 0.192 µM. Moreover, the “Proliferation (BrdU incorporation)” value is on record as “decrease in proliferation” in the assay on MCF10A cells [8]; “slight decrease in proliferation” in the assay on MDA-MB-231 cells [9] (setting [12]); “not affected” with MDA-MB-231 cells [9] (short-term (2 hours) ouabain); “slight decrease in proliferation” with MCF10CA1 cells [10] (setting [12]); “not affected” in the assay on MCF10CA1 cells [10] (short-term (2 hours) ouabain); “no change to proliferation” in the assay with MCF7 cells [11]. The “Cell viability over treatment duration” value in the assay on MCF10A cells [2] (500 nM ouabain, after 2 days (0 to 48 hours)) was “nearly all of the MCF10A cells have died”. The “Cell viability at varied serum concentration” value with MCF10A cells [2] (reduced serum (0-10% serum), 500 nM ouabain for 24 hours) is given as “increased ouabain sensitivity”; in the assay on MDA-MB-231 cells [3] (MDA-MB-231, 0-10% serum, 500 nM ouabain for 24 hours) it was “not affected”. The “Cells exhibiting DNA fragmentation (TUNEL), a marker for apoptosis” value is listed as below 5% with MDA-MB-231 cells [4] (500 nM ouabain), “Over 90%” with MCF10A cells [5] (500 nM ouabain), below 5% in the assay with MCF10CA1 cells [6] (500 nM ouabain) and below 5% with MCF7 cells [7] (500 nM ouabain). Also, the “ATPase inhibition at varied serum level” value at Na,K-ATPase (MCF10A isolated membranes, 0-10% serum, 500 nM ouabain, p > 0.05) is “No significant difference in ATPase inhibition”. The “p-ERK levels in lysates (western blot)” value in the assay with p-ERK1/2 (A2780CP (cisplatin resistant) cells) and in the assay with p-ERK1/2 (A2780 cells) was “increased levels of p-ERK” in each case. Besides, the “p-ERK1/2 levels in lysates (western blot)” value is listed as “did not contain detectable levels of activated p-ERK1/2” in the assay with p-ERK1/2 (MCF10A, 24 hours (any treatment condition)); “elevated p-ERK1/2 levels” in the assay with p-ERK1/2 (MCF10CA1, 24 hours); “elevated p-ERK1/2 levels” in the assay on p-ERK1/2 (MDA-MB-231, 24 hours).
